According to patent US10028971B2, “Compositions and methods for treating psychiatric disorders” (GOSFORTH CENTRE (HOLDINGS) PTY LTD., priority 2008, dated 2018):
Read-outs that look alike come from different tables or passages of the source.

Tests used:
[1] = tested on: individuals with MCI or dementia; conditions: cited from earlier work; for effect in mild cognitive impairment (reports): individuals with MCI
[2] = tested on: patients with an eating disorder and ADHD; conditions: double-blind studies; effects thought only short-lived; cited from earlier work
[3] = tested on: individuals with developmental dyspraxia / poor coordination; assay: Treatment of developmental dyspraxia, clinical observation; format: in vivo, human; conditions: person, ADHD
Excerpt: Many of the individuals treated at this clinic, with a diagnosis of ADHD and/or pervasive development disorder such Asperger's Syndrome or autism also present with symptoms consistent with a diagnosis of a developmental coordination disorder. They are often described as ‘unco’ (unco-ordinated) by their peers and experience victimization, poor self-esteem and frustration as a consequence of their poor coordination. […] Individuals have described a sense of having more time to coordinate movements and to understand and integrate their own activity appropriately within a team sport such as soccer, which has previously eluded them. Individuals have felt frustration at being able to practise repeatedly an activity or skill only to be unable to put it into practice when required, within the play of a match. It is proposed that individuals were previously unable to process and plan their own coordination but remain aware of the general activity in which they were participating.

[4] = tested on: patients with an eating disorder and ADHD; assay: Treatment of eating disorders, clinical observation; conditions: person
Description: The use of sodium valproate at low dose levels can then be titrated to a level that does effectively control these thoughts. This may or may not be at the therapeutic dose used in the treatment of bipolar disorder.

adults with ADHD = conditions: for group outcome of combination therapy: adults with ADHD
Description: In the clinical setting a number of adults with ADHD experienced a combination therapy of stimulant medication (dexamphetamine) in combination with sodium valproate (VPA). The initial dosages used were from 15 to 70 mg/day of dexamphetamine and from 100 to 700 mg/day of VPA (Epilim) (=approximately 2 to 10 mg/kg/day).
The determination of the dose for the dexamphetamine was undertaken in a clinical sensitive open label manner. The dose was titrated upwards dependent on the clinical response and the freedom from side-effects. The dose range was between 15 and 70 mg a day. The frequency of the dosing also varied dependent upon the clinical response. The usual dose interval was between two to four hours. This dosing adjustment took place prior to the commencement of the sodium valproate. The sodium valproate medication was initiated once a day at 50 mg tablet or elixir and titrated upwards dependent on response, but not more than one increase every three days. The dose was given as a once or twice a day regime. During the titration phase, if clinically possible, no other adjustments to the pharmacotherapy were undertaken.

[5] = in vivo; cited from earlier work
[6] = tested on: Parkinson's disease patient; assay: Parkinson's disease clinical example with infrared eye tracking; format: in vivo, human; conditions: 12.5 mg phenytoin
Excerpt: Clinical example person with a ten-year history of Parkinson's disease. Moderate to severe motor symptoms with muscle rigidity, resting tremor, brady-[…] slowing of speech. No evidence of dementia or depression. […] An enhanced initiation of movement. Also described an improved perception of efficiency in thought and action. No evidence of loss of efficacy of medication. Using infrared eye tracking technology it was noted that the fixations and […] movements were enhanced after treatment. Measurements were undertaken both whilst silent and speaking with and without eye contact with the investigator. Based on these investigations in Parkinson's disease and also in mild cognitive impairment and dementia we consider that condition is described as Parkinson plus diseases, including multiple system atrophy (MSA), progressive supranuclear palsy (PSP), corticobasal degeneration (CBD), and dementia with Lewy bodies (DLB)s may also benefit from the addition of a low dose AED with and without a psychostimulant.

[7] = tested on: adherence to medication regime; conditions: person, anxiety and depression, no ADHD; 25 mg phenytoin
Description: As a result, taking medication becomes an automatic activity which doesn't require a high level of attention and motivation.
The individual experiences an improvement in the ability to efficiently and effectively attend to a task in hand, without also needing to expend extra cognitive effort to remember which medication to take and at what times.

[8] = tested on: mood stabilisation or epileptic symptoms or events; conditions: cited from earlier work; for Minimum Dose/day effective for mood stabilisation or treatment of epileptic symptoms or events: usual minimum anti-convulsant dose per day
[9] = tested on: individuals with MCI or dementia; assay: Mild cognitive impairment and dementia, clinical cases (Developmental Eye Movement test, Alzheimer's Quick Test); format: in vivo, human; conditions: person
Excerpt: A married person with a history of good cognitive functioning until last 4-5 yrs when noted by both their spouse and themself to becoming increasingly socially withdrawn primarily because of the difficulty in listening without distraction during social interaction, no known childhood or adult history of prior attentional or impulsive disorders. It has been clinically observed by the inventor that individuals treated with low dose antiepileptic were enhanced in their ability to discriminate irrelevant from the relevant sound was enhanced. […] On ceasing the medication there was an initial improvement again over the preceding 3 to 7 days followed by a loss of the therapeutic effects and returned to their pre-medication function. On the ressumption of the 12.5 mg phenytoin there was a return of the improved function. On this second occasion they were more aware of the benefits and also the gradual return of the detrimental clinic effects. During the clinical assessment it was noted that they had more flexibility in their conversation and more natural use of non-verbal cues, there was also enhancement of their egocentric gaze. […] These benefits were also noted by their spouse. […] Again these medications were ceased resulting in a loss of associated benefits. With each trial of medication they became more apparent to the patient and their spouse of the benefits of the therapy. They attempted whilst not taking the medication to communicate and follow the conversation in a way that they had been able to whilst on treatment. They found when attempting to do so they became mentally exhausted and unable to sustain the effort required for the interaction. The improvements noted clinically and also recorded using the Developmental Eye Movement test and a measure of parietal function the Alzheimer's Quick Test. Married person diagnosed with fronto-temporal dementia. they had been assessed by neuropsychologist, and geriatrician and psychiatrist to confirm this diagnosis. […] They then relied on others to make decisions for […]. They had gradually become socially disengaged finding such interactions distressing and demanding. […] Despite ongoing difficulties of word finding they were able to socially interact more spontaneously than they had done for many years. And have confidence in areas of conversation that they previously would have avoided. […] On two occasions the medication was withdrawn and then reintroduced, due to the experimental nature of treatment and concern that there might be a significant placebo effect. […] Following the subsequent reduction there was a return of the improvement previously noted.

[10] = tested on: patients with substance addiction; conditions: psychostimulants alone; cited from earlier work
[11] = tested on: patients with substance addiction; assay: Treatment of addictions, clinical observation; format: in vivo, human; conditions: person; dexamphetamine alone over 6 months
Excerpt: Addiction to amphetamines poses a number of unique challenges.

[12] = tested on: individual not meeting the full criteria for ADHD; assay: Subthreshold ADHD, clinical case (Example 21); format: in vivo, human; conditions: person; topiramate 12.5 mg daily added to dexamphetamine 2.5 mg daily
[13] = fronto-temporal dementia, 25 mg phenytoin

COc1cc2c(cc1OC)C(=O)C(CC1CCN(Cc3ccccc3)CC1)C2 (stereo not shown) [Donepezil]
side effects in MCI (reports) ([1]; human, in vivo): significant side effects | effect in mild cognitive impairment (reports) [1]: only minor, short-term benefits

CCN(C)C(=O)Oc1cccc([C@H](C)N(C)C)c1 [Rivastigmine]
effect in mild cognitive impairment (reports) [1]: failed to stop or slow progression to Alzheimer's disease or improve cognitive function

COC(=O)C(c1ccccc1)C1CCCCN1 (stereo not shown) [methylphenidate]
effect on bulimic symptoms [2]: suppression of bulimic symptoms | clinical outcome (case) ([3]; autism, developmental dyspraxia, methylphenidate max 95 mg daily): Limited improvement with poor compliance | clinical outcome (case) ([4]; anorexia nervosa, ADHD, methylphenidate, 45 mg extended release): inconsistent | clinical outcome (case) (adults with ADHD; adult female, ADHD, anorexia nervosa bulimic subtype, methylphenidate alone): reasonable improvement | clinical outcome (case) (adults with ADHD; person 120 kg, ADHD, methylphenidate 120 mg per day alone): Remain disorganized and inconsistent with taking medication | clinical outcome (case) (adults with ADHD; person, ADHD, methylphenidate 55 mg): improvement in their symptoms of impaired attention and concentration | clinical outcome (case) (adults with ADHD; person, anorexia nervosa, ADHD, methylphenidate alone): inconsistent | duration of action [5]: 2 to 4 h

O=C1NC(=O)C(c2ccccc2)(c2ccccc2)N1 [Phenytoin]
fixations and saccadic eye movements after treatment ([6]; infrared eye tracking): enhanced | clinical outcome (case) ([6]; person, ten-year Parkinson's disease): improved verbal fluency, enhanced and less effortful social connection and eye contact | time to noted improvement ([6]; person): 2 to 3 days | clinical outcome (case) ([3]; phenytoin 25 mg added to dexamphetamine 25 mg, atomexetine 60 mg, sodium valproate 150 mg): improvement in coordination | clinical outcome (case) [7]: improved self organisation and ability to plan ahead without effort | Minimum Dose/day effective for mood stabilisation or treatment of epileptic symptoms or events [8]: 200 mg | course of benefit on continued dosing (adults with ADHD; 50 mg phenytoin dose with dexamphetamine, many clinical situations): loss of benefit of the therapy over the proceeding weeks and months | clinical outcome (case) (adults with ADHD; adult female, phenytoin 50 mg added to sodium valproate 100 mg and methylphenidate): Pervasive and robust psychosocial improvement | group outcome of combination therapy (adults with ADHD; Methylphenidate 40 mg/d, Valproate 100 mg/d, Phenytoin 50 mg/d): successfully treated | group outcome of combination therapy (adults with ADHD; dexamphetamine 20-45 mg/d, Valproate 100-400 mg/d, Phenytoin 12.5-50 mg/d): successfully treated | group outcome of combination therapy (adults with ADHD; dexamphetamine 20-75 mg/d with Phenytoin 1-75 mg/d): successfully treated | group outcome of combination therapy (adults with ADHD; methylphenidate 15-105 mg/d with Phenytoin 25-50 mg/d): successfully treated | clinical outcome (case) (adults with ADHD; person, ADHD, phenytoin 30 mg added to dexamphetamine): improvement in ability to read and sustain enjoyable conversation | clinical outcome (case) (adults with ADHD; person, 12.5 mg phenytoin added to sodium valproate 100 mg and dexamphetamine): Significant improvement in ability to maintain egocentric eye gaze and cognition | clinical outcome (case) (adults with ADHD; person, 50 mg phenytoin added to methylphenidate 120 mg per day): improved cognition with increased confidence in interpersonal relationships | clinical outcome (case) (adults with ADHD; person, phenytoin 20 mg per day added to sodium valproate and dexamphetamine): further improvement of the sequencing and organisation of thoughts | clinical outcome (case) (adults with ADHD; person, phenytoin 50 mg later 25 mg added to dexamphetamine and sodium valproate 200 mg): immediate improvement of stability of affect and clarity of thinking | clinical outcome (case) [9, 13]: remarkable improvement in their cognitive functioning | rapid automatic naming and Alzheimer's Quick Test (AQT) [9, 13]: significant improvement in their functioning | clinical outcome (case) ([9]; social withdrawal, phenytoin 12.5 mg daily): able to socially interact in a more meaningful way | clinical outcome (case) ([9]; phenytoin 10 mg added to low dose sodium valproate): more robust improvement on either medication alone | clinical outcome (case) ([9]; phenytoin 50 mg for two weeks): loss of the therapeutic benefit and general impairment | clinical outcome (case) ([9]; phenytoin increased to 25 mg, over 6 to 8 weeks): loss of the benefits

C[C@H](N)Cc1ccccc1 [dexamphetamine]
use alone in treatment of amphetamine and cocaine addiction [10]: unhelpful | stability and functional benefit (case) [11]: not noted

CC1(C)O[C@@H]2[C@@H](CO[C@@]3(COS(N)(=O)=O)OC(C)(C)O[C@@H]23)O1 [Topiramate, 2,3:4,5-Bis-O-(1-methylethylidene)-beta-D-fructopyranose sulfamate]
clinical outcome (case) [12]: significant improvement | clinical outcome (case) ([4]; 25 mg topiramate added to 45 mg extended release methylphenidate): improved organisation, enhanced interpersonal functioning, improved cognition and able to sustain egocentric eye gaze | target dose for controlling epileptic seizures ([8]; in vivo): 100 to 500 mg/day | Minimum Dose/day effective for mood stabilisation or treatment of epileptic symptoms or events [8]: 100 mg | group outcome of combination therapy (adults with ADHD; dexamphetamine 30-80 mg/d with Topiramate 12.5-50 mg/d): successfully treated | group outcome of combination therapy (adults with ADHD; median 40 mg/d Dexamphetamine, 120 mg/d Sodium Valproate, 25 mg/d Topiramate): successfully treated | group outcome of combination therapy (adults with ADHD; methylphenidate 40-55 mg/d with Topiramate 12-37.5 mg/d): successfully treated | clinical outcome (case) (adults with ADHD; person, ADHD, 25 mg topiramate added to dexamphetamine 30 mg): ability to complete tasks, improvement in cognition | clinical outcome (case) (adults with ADHD; person, 25 mg topiramate added to oros extended release methylphenidate): improved organisation, cognition, enhanced interpersonal functioning, and ability to sustain egocentric eye gaze | clinical outcome (case) (adults with ADHD; person, topiramate 25 mg added to sodium valproate 300 mg and dexamphetamine 20 mg): Further improvements in interpersonal professional functioning
